Where “and” joins values, the source holds several entries; their conditions need not be identical. Identical values can stand only once. Like-named read-outs stand apart in the source and are kept apart here.
Experiments:
proteinase 3 (PR3) [1] = test: PR3 activity in sputum of adults with CF; format: in vivo, human
Excerpt: (§1) If a participant experienced an intercurrent event, defined as use of antibiotics during an acute event that could influence NSP levels, the data were not included in the PD analysis. In assessing treatment-emergent adverse events (TEAEs), the “while-on-treatment” strategy was implemented, which encompassed the 28-day period following the final dose of study drug. With this strategy, data collected prior to the occurrence of the intercurrent event, that is, to discontinuation of brensocatib, were included in the analysis.
(§2) On the basis of the comparability of PK between participants with and without concomitant use of CFTR modulators, NSP activity (NE, CatG, PR3) in blood and sputum was analyzed using the combined data sets without the CFTR modulator stratum.

P-glycoprotein (P-gp) = tested on: P-glycoprotein (P-gp); parameters: method as in PMID 35411669; conditions: cited from earlier work
[2] = tested on: NSP activity (NE, CatG, PR3); test: Exposure-response of NSP activity reduction (LOESS regression); format: in vivo, human; conditions: particularly in blood
Method: The NSP activity reduction reached a saturation point at approximately 25 mg, as indicated by the plateau of the associated PK measures. The sensitivity of reduction for brensocatib was greatest for CatG, followed by NE, and PR3 (Fig. 6).

proteinase 3 (PR3) [3] = test: Active PR3 in blood (white blood cell pellets) of adults with CF; format: in vivo, human; conditions: for PR3, median % reduction relative to baseline: Blood, day 29
Method: (§3) Blood PD samples were collected at screening; predose on days 1, 2, 14, 28, and 29; and at the follow-up visit (day 35). The samples were analyzed at an external service provider to determine the concentrations of active NE, PR3, and CatG in white blood cell pellets using validated enzymatic methods with quantification limits of 87.9 ng/mL for NE and PR3 and 70.3 ng/mL for CatG. The fit-for-purpose methods details were published internally and stored within Insmed’s document repository.
as §1

[4] = parameters: method as in PMID 35411669, PMID 29484635; conditions: cited from earlier work
[5] = tested on: breast cancer resistance protein (BCRP); parameters: method as in PMID 35411669; conditions: cited from earlier work
[6] = parameters: method as in PMID 40267423; conditions: NCFBE, ASPEN, cited from earlier work
neutrophil elastase (NE) [7] = tested on: neutrophil elastase (NE); parameters: method as in PMID 32897034; conditions: NCFBE, cited from earlier work
cathepsin G (CatG) [8] = test: CatG activity in sputum of adults with CF; format: in vivo, human
Excerpt: as §1, §2

neutrophil elastase (NE) [9] = test: NE activity in sputum of adults with CF; format: in vivo, human
Excerpt: as §1, §2

[10] = parameters: method as in PMID 39574348; conditions: single dose, cited from earlier work
CYP3A = tested on: CYP3A; parameters: method as in PMID 35411669; conditions: cited from earlier work
cathepsin G (CatG) [11] = test: Active CatG in blood (white blood cell pellets) of adults with CF; format: in vivo, human; conditions: for CatG, median % reduction relative to baseline: Blood, day 29
Method: as §3, §1

Cn1c(=O)oc2ccc(-c3ccc(C[C@@H](C#N)NC(=O)[C@@H]4CNCCCO4)cc3)cc21 [Brensocatib]
PR3, median % reduction relative to baseline (proteinase 3 (PR3) [1]; 10 mg QD, day 29, n = 5): 59.1 (n = 5) %
PR3, median % reduction relative to baseline (proteinase 3 (PR3) [1]; 25 mg QD, day 29, n = 3): 67.1 (n = 3) %
PR3, median % reduction relative to baseline (proteinase 3 (PR3) [1]; 40 mg QD, day 29, n = 1): −17.0 (n = 1) %
substrate status (P-glycoprotein (P-gp)): substrate
dose at which NSP activity reduction reached a saturation point [2]: approximately 25 mg
PR3, median % reduction relative to baseline (proteinase 3 (PR3) [3]; 10 mg QD, n = 6): 17.3 (n = 6) %
PR3, median % reduction relative to baseline (proteinase 3 (PR3) [3]; 25 mg QD, n = 7): 40.8 (n = 7) %
PR3, median % reduction relative to baseline (proteinase 3 (PR3) [3]; 40 mg QD, n = 7): 55.0 (n = 7) %
median percent reduction of PR3 activity in blood (proteinase 3 (PR3) [3]; over the dose range of 10–40 mg QD): 17–55%
urinary excretion ([4]; at steady state): approximately 20%
elimination half-life ([4]; single doses of 5–120 mg and QD dosing at 10–40 mg): 20 to 30 h
steady state accumulation ([4]; single or multiple dosing): approximately twofold
substrate status [5]: substrate
annualized rate of adjudicated pulmonary exacerbations compared with placebo ([6]; 10 mg or 25 mg QD): significantly reduced
lung function decline (FEV1) over 52 weeks compared with placebo ([6]; 25 mg): significantly lower
Median % reduction of NE activity in the blood (neutrophil elastase (NE) [7]; 10 mg, n = 38): 30.9% and 30.9 (n = 38) %
Median % reduction of NE activity in the blood (neutrophil elastase (NE) [7]; 25 mg, n = 45): 66.5% and 66.5 (n = 45) %
CatG, median % reduction relative to baseline (cathepsin G (CatG) [8]; 10 mg QD, day 29, n = 5): 51.3 (n = 5) %
CatG, median % reduction relative to baseline (cathepsin G (CatG) [8]; 25 mg QD, day 29, n = 3): 0 (n = 3) %
CatG, median % reduction relative to baseline (cathepsin G (CatG) [8]; 40 mg QD, day 29, n = 2): 0 (n = 2) %
NE, median % reduction relative to baseline (neutrophil elastase (NE) [9]; 10 mg QD, day 29, n = 5): 40.7 (n = 5) %
NE, median % reduction relative to baseline (neutrophil elastase (NE) [9]; 25 mg QD, day 29, n = 3): 77.8 (n = 3) %
NE, median % reduction relative to baseline (neutrophil elastase (NE) [9]; 40 mg QD, day 29, n = 2): 69.9 (n = 2) %
tolerability ([10]; adults with varying degrees of renal impairment): well tolerated
effect of renal impairment on brensocatib elimination and exposure [10]: not significantly affected
substrate status (CYP3A; CYP3A): substrate
inhibition or induction of CYP3A (CYP3A): not a clinically meaningful inhibitor or inducer
CatG, median % reduction relative to baseline (cathepsin G (CatG) [11]; 10 mg QD, n = 6): 75.1 (n = 6) %
CatG, median % reduction relative to baseline (cathepsin G (CatG) [11]; 25 mg QD, n = 7): 84.9 (n = 7) %
CatG, median % reduction relative to baseline (cathepsin G (CatG) [11]; 40 mg QD, n = 7): 91.3 (n = 7) %
median percent reduction of CatG activity in blood (cathepsin G (CatG) [11]; in all doses of brensocatib): 75–91%
